# ChEMBL document CHEMBL1149950, “The synthesis and anti-hiv activity of pyrimidine dioxolanyl nucleosides” (Bioorg Med Chem Lett, 1993)
# Columns and labels:
# [1] = Tested in vitro for the antiviral assay in mitogen stimulated human peripheral blood mononuclear (PBM) cells infected with HIV-1 (strain LAV); type: functional
# MT4 [2] = assay: Tested in vitro for the cytotoxic activity against uninfected MT-4 cells; type: functional, cell-based; conditions: Homo sapiens
# Vero = assay: Tested in vitro for the cytotoxic activity against uninfected Vero cells; type: functional, cell-based; conditions: Chlorocebus sabaeus
# [3] = Tested in vitro for the cytotoxic activity against uninfected human peripheral blood mononuclear (PBM) cells; type: functional
# CCRF-CEM = assay: Tested in vitro for the cytotoxic activity against uninfected CEM cells; type: functional, cell-based; conditions: Homo sapiens
# MT4 [4] = assay: Tested in vitro for the cytotoxic activity against uninfected MT-4 cells at 200 uM; type: functional; conditions: Homo sapiens
Compound,EC50 [1],IC50 (MT4 [2]),IC50 (Vero),IC50 [3],IC50 (CCRF-CEM),inhibition at 200 µM (MT4 [4])
O=c1ccn([C@H]2CO[C@@H](CO)O2)c(=O)[nH]1,57.5 µM,> 200 µM,> 100 µM,> 100 µM,,
Nc1ccn([C@H]2CO[C@@H](CO)O2)c(=O)n1,0.005 µM,,0.17 µM,> 100 µM,0.08 µM,66%
CCc1cn(C2COC(CO)O2)c(=O)[nH]c1=O (stereo not drawn),> 100 µM,,> 100 µM,> 100 µM,,30%
O=c1[nH]c(=O)n([C@H]2CO[C@@H](CO)O2)cc1Br,2.8 µM,> 200 µM,> 100 µM,> 100 µM,,
O=c1[nH]c(=O)n(C2COC(CO)O2)cc1Cl (stereo not drawn),1.7 µM,> 200 µM,> 100 µM,> 100 µM,,
O=c1[nH]c(=O)n(C2COC(CO)O2)cc1I (stereo not drawn),> 100 µM,> 200 µM,> 100 µM,> 100 µM,,
O=c1[nH]c(=O)n(C2COC(CO)O2)cc1C(F)(F)F (stereo not drawn),93 µM,> 200 µM,> 100 µM,> 100 µM,,
O=c1[nH]c(=O)n([C@H]2CO[C@@H](CO)O2)cc1F,28.5 µM,,> 100 µM,> 100 µM,> 100 µM,
